Data set [1] concerns mushroom tyrosinase. Kind of data set: Tyrosinase inhibition assay (96-well, L-DOPA substrate, dopachrome at 480 nm). The format is biochemical. To be noted: for IC50: mean ± SEM, triplicate, substrate L-DOPA. Here is the method:
Using a spectrophotometer microplate reader, the 96-well plate tyrosinase inhibition experiment was performed by Masamoto et al.'s protocol.[65,66] […] Then, add 60 μL of phosphate buffer and 10 μL of mushroom tyrosinase (30 U mL^−1 in phosphate buffer) to the reaction mixture incubated for 10 min at 25 °C. Following incubation, 20 μL of substrate L-DOPA (0.5 mM) in phosphate buffer was added. The end product dopachrome formation was measured at 480 nm for continues 10 min with one min interval time using 96-well ELISA plate reader (Bio-Rad xMARK microplate spectrophotometer). All of the experiments were carried out in triplicate to account for potential mistakes, and the mean findings were reported in SEM. All of the in vitro experiment results, including % inhibition and IC50 values, were examined using EZ-Fit, an enzyme kinetics tool that fits curves (Perrella Scientific Inc., Amherst, USA).
The % inhibition was computed using the formula provided below.1 [drawing 39]
EZ-FIT (Perrella Scientific, Inc., USA) was used to calculate each tested compound's IC50 value. All the experiments were performed in triplicate to reduce predicted errors, and differences in the outcomes are expressed as Standard Error of Mean values (SEM).2 [drawing 40]

Data set [2] deals with mushroom tyrosinase. Kind of data set: Kinetic analysis of tyrosinase inhibition (Lineweaver-Burk, Dixon plot). Type of data set: biochemical. Conditions: substrate L-Dopa 0.1-0.8 mM. Here is the method:
Four distinct doses of the substrate L-Dopa 0.1, 0.2, 0.4, and 0.8 mM were used in the kinetic analysis. The in vitro mechanistic study was carried out by following a similar inhibitory procedure with a similar experimental temperature and time period. […]

The record followed here is publication PMC11378339, “Design, synthesis, and in vitro and in silico study of 1-benzyl-indole hybrid thiosemicarbazones as competitive tyrosinase inhibitors” (RSC Advances, 2024).

Take `COc1ccc(NC(=S)N/N=C/c2cn(Cc3ccccc3)c3ccccc23)cc1` [Compound 5a, (E)-2-[(1-benzyl-1H-indol-3-yl)methylene]-N-(4-methoxyphenyl)hydrazinecarbothioamide]: in data set [1], the “Percent inhibition (0.5 mM)” value is 87.15% and the IC50 amounted to 24.2 ± 0.38 µM.

`S=C(NCCc1ccccc1)N/N=C/c1cn(Cc2ccccc2)c2ccccc12` [Compound 5b, (E)-2-[(1-benzyl-1H-indol-3-yl)methylene]-N-phenethylhydrazinecarbothioamide] returned a melting point of 198 to 201 °C. Besides, in data set [1], the “Percent inhibition (0.5 mM)” value worked out at 78.35% and the IC50 came out at 45.4 ± 0.75 µM.

With `Cc1cccc(C)c1NC(=S)N/N=C/c1cn(Cc2ccccc2)c2ccccc12` [Compound 5c, (E)-2-[(1-benzyl-1H-indol-3-yl)methylene]-N-(2,6-dimethylphenyl)hydrazinecarbo thioamide], in data set [1], the “Percent inhibition (0.5 mM)” value is reported as 85.66% and the IC50 is 27.4 ± 0.6 µM.

In the case of `Fc1ccc(NC(=S)N/N=C/c2cn(Cc3ccccc3)c3ccccc23)cc1` [Compound 5d, (E)-2-[(1-benzyl-1H-indol-3-yl)methylene]-N-(4-fluorophenyl)hydrazinecarbothioamide], in data set [1], the “Percent inhibition (0.5 mM)” value is recorded as 90.47% and the IC50 was 16.8 ± 0.38 µM.

As to `S=C(NCc1ccc(Cl)cc1)N/N=C/c1cn(Cc2ccccc2)c2ccccc12` [Compound 5e, (E)-2-[(1-benzyl-1H-indol-3-yl)methylene]-N-(4-chlorobenzyl)hydrazinecarbothioamide], the melting point fell in the range of 225 to 227 °C. Moreover, in data set [1], the “Percent inhibition (0.5 mM)” value was determined as 84.73% and the IC50 came out at 33.6 ± 1.1 µM.

In turn, `S=C(N/N=C/c1cn(Cc2ccccc2)c2ccccc12)Nc1cccc(Cl)c1Cl` [Compound 5f, (E)-2-[(1-benzyl-1H-indol-3-yl)methylene]-N-(2,3-dichlorophenyl)hydrazinecarbo thioamide] had a melting point of 213 to 215 °C. In addition, in data set [1], the “Percent inhibition (0.5 mM)” value amounted to 90.83% and the IC50 amounted to 15.3 ± 0.37 µM.

For `S=C(N/N=C/c1cn(Cc2ccccc2)c2ccccc12)Nc1ccccc1` [Compound 5g, (E)-2-[(1-benzyl-1H-indol-3-yl)methylene]-N-phenylhydrazinecarbothioamide], in data set [1], the “Percent inhibition (0.5 mM)” value amounted to 81.47% and the IC50 was found to be 38.3 ± 1.34 µM.

Regarding `Cc1ccc(NC(=S)N/N=C/c2cn(Cc3ccccc3)c3ccccc23)c(C)c1` [Compound 5h, (E)-2-[(1-benzyl-1H-indol-3-yl)methylene]-N-(2,4-dimethylphenyl)hydrazinecarbo thioamide], the melting point is 180 to 182 °C. In data set [1], the “Percent inhibition (0.5 mM)” value worked out at 83.76% and it took 29.7 ± 0.72 µM to reach half-maximal inhibition (IC50).

In the case of `S=C(NCc1ccccc1)N/N=C/c1cn(Cc2ccccc2)c2ccccc12` [Compound 5i, (E)-N-benzyl-2-[(1-benzyl-1H-indol-3-yl)methylene]hydrazinecarbothioamide], the melting point was in the range of 193 to 195 °C. Also, in data set [1], the “Percent inhibition (0.5 mM)” value is recorded as 82.71% and the IC50 is 36.7 ± 1.48 µM.

`S=C(N/N=C/c1cn(Cc2ccccc2)c2ccccc12)Nc1ccc(Br)cc1` [Compound 5j, (E)-2-[(1-benzyl-1H-indol-3-yl)methylene]-N-(4-bromophenyl)hydrazinecarbothioamide]: in data set [1], the “Percent inhibition (0.5 mM)” value stood at 84.19% and the IC50 was 26.8 ± 0.29 µM.

The compound `Cc1ccc(CNC(=S)N/N=C/c2cn(Cc3ccccc3)c3ccccc23)cc1` [Compound 5k, (E)-2-[(1-benzyl-1H-indol-3-yl)methylene]-N-(4-methylbenzyl)hydrazinecarbothioamide] had a melting point of 223 to 225 °C. Moreover, in data set [1], the “Percent inhibition (0.5 mM)” value came out at 90.84% and the IC50 came to 12.4 ± 0.26 µM. Besides, in data set [2], the Ki came to 10.2 ± 0.006 µM and the type of inhibition entry is “competitive”.

As to `COc1cccc(NC(=S)N/N=C/c2cn(Cc3ccccc3)c3ccccc23)c1` [Compound 5l, (E)-2-[(1-benzyl-1H-indol-3-yl)methylene]-N-(3-methoxyphenyl)hydrazinecarbothioamide], in data set [1], the “Percent inhibition (0.5 mM)” value amounted to 84.39% and the IC50 was 31.6 ± 1.26 µM.

As for `Cc1cc(C)cc(NC(=S)N/N=C/c2cn(Cc3ccccc3)c3ccccc23)c1` [Compound 5m, (E)-2-[(1-benzyl-1H-indol-3-yl)methylene]-N-(3,5-dimethylphenyl)hydrazine carbo thioamide], the melting point is 221 to 223 °C. In addition, in data set [1], the “Percent inhibition (0.5 mM)” value was found to be 76.35% and the IC50 is 47.2 ± 1.27 µM.

In turn, `Cc1ccc(NC(=S)N/N=C/c2cn(Cc3ccccc3)c3ccccc23)cc1` [Compound 5n, (E)-2-[(1-benzyl-1H-indol-3-yl)methylene]-N-(p-tolyl)hydrazinecarbothioamide] returned a melting point of 221 to 223 °C. Moreover, in data set [1], the “Percent inhibition (0.5 mM)” value is reported as 86.54% and the IC50 worked out at 26.1 ± 0.47 µM.

Turning to `O=[N+]([O-])c1cccc(NC(=S)N/N=C/c2cn(Cc3ccccc3)c3ccccc23)c1` [Compound 5o, (E)-2-[(1-benzyl-1H-indol-3-yl)methylene]-N-(3-nitrophenyl)hydrazinecarbothioamide], in data set [1], the “Percent inhibition (0.5 mM)” value is on record as 91.34% and 17.1 ± 0.28 µM corresponded to half-maximal inhibition (IC50).

The compound `CNC(=S)N/N=C/c1cn(Cc2ccccc2)c2ccccc12` [Compound 5p, (E)-2-[(1-benzyl-1H-indol-3-yl)methylene]-N-methylhydrazinecarbothioamide] returned a melting point of 220 to 221 °C. Further, the “Percent inhibition (0.5 mM)” value in data set [1] came out at 46.20%.

The compound `O=[N+]([O-])c1ccc(NC(=S)N/N=C/c2cn(Cc3ccccc3)c3ccccc23)cc1` [Compound 5q, (E)-2-[(1-benzyl-1H-indol-3-yl)methylene]-N-(4-nitrophenyl)hydrazinecarbothioamide] yielded a melting point of 223 to 225 °C. In addition, in data set [1], the “Percent inhibition (0.5 mM)” value was found to be 91.53% and 15.3 ± 0.3 µM corresponded to half-maximal inhibition (IC50).

Regarding `S=C(N/N=C/c1cn(Cc2ccccc2)c2ccccc12)Nc1cccc2ccccc12` [Compound 5r, (E)-2-[(1-benzyl-1H-indol-3-yl)methylene]-N-(naphthalen-1-yl)hydrazinecarbothioamide], the melting point lay in the range of 199 to 201 °C. In data set [1], the “Percent inhibition (0.5 mM)” value came out at 77.86% and the IC50 was determined as 34.6 ± 0.81 µM.

Broadly, the IC50 is the concentration needed to halve the response being measured. In general, melting point refers to the temperature, or range, at which the solid turns liquid. The term Ki denotes the equilibrium dissociation constant of an inhibitor or competing ligand from its target. Low readings indicate higher affinity, high ones lower affinity.
